Measured values: article PMC11489133, “Obicetrapib exhibits favorable physiochemical and pharmacokinetic properties compared to previous cholesteryl ester transfer protein inhibitors: An integrated summary of results from non‐human primate studies and clinical trials” (Pharmacology Research & Perspectives, 2024)
Read-outs that look alike come from different tables or passages of the source.

Assays:
[1] = ROSE2 Phase II trial, plasma concentrations of obicetrapib; type: in vivo, humans; details: for % Change in Plasma Level: Week 12 to Week 16, mean (SD); for concentration at 12 weeks / concentration at 16 weeks: both sexes, human, plasma, oral, read-out: Mean (SD) Plasma Level; for concentration at 12 weeks: Week 12 (EOT), on‐treatment PK population; for concentration at 16 weeks: Week 16, four weeks after the end of treatment
Description: The PK parameters and the effect of food on the bioavailability of obicetrapib in humans have been examined in both Phase I[9] (TA‐8995‐09 CSR, NewAmsterdam Pharma) and Phase II trials.[10], [11], [12], [13] The trials were performed in accordance with the Declaration of Helsinki, Good Clinical Practice Guidelines, and applicable regulatory requirements. Approval was obtained from the relevant ethical review boards for each site. All volunteers provided written informed consent prior to participation. PK parameters were determined using WinNonlin software, version 4.1 or higher (Pharsight/Certara Corporation, USA). Concentrations of obicetrapib were summarized for each treatment group using descriptive statistics.
ROSE2 (NCT05266586) was a placebo‐controlled, double‐blind, randomized trial conducted to evaluate the efficacy, safety, and tolerability of obicetrapib or obicetrapib plus ezetimibe as an adjunct to high‐intensity statin therapy.[12] An exploratory endpoint of the trial included assessing the plasma concentrations of obicetrapib during treatment and 4 weeks after the end of treatment. […] One hundred nineteen participants (mean age: 62.6 years; 63.9% male; 84.5% White; mean BMI: 30.9 kg/m^2) were enrolled at 18 clinical research sites in the United States and randomized in a 1:1:1 ratio to one of three treatment groups: (1) placebo; (2) obicetrapib monotherapy (one 10 mg obicetrapib tablet plus one placebo capsule for ezetimibe); or (3) combination therapy (one 10 mg obicetrapib tablet plus one 10 mg ezetimibe capsule). The participants were instructed to take their assigned treatment orally with water once daily at approximately the same time each morning for the 12‐week treatment period. After randomization, participants returned to the clinical research site during Weeks 4 and 12 (end of treatment) for safety and PK assessments. Participants also completed a follow‐up visit 4 weeks after the end of treatment (Week 16) for final safety and PK assessments. Of the 119 participants randomized, 97 (81.5%) were included in an on‐treatment analysis, which excluded participants with plasma concentrations of obicetrapib <100 ng/mL at either or both Week 4 and Week 12.[12] The on‐treatment PK population (n = 57) included all randomized participants in the mITT population assigned to the two obicetrapib dose groups who had sufficient blood samples collected for valid estimation of PK parameters and excluded participants with plasma concentrations of obicetrapib <100 ng/mL at either or both Week 4 and Week 12. Fifty‐six (98.2%) participants in the on‐treatment PK population were included in the 4‐week post‐end of treatment PK analysis (TA‐8995‐202 CSR, NewAmsterdam Pharma).

[2] = Phase II trials of obicetrapib, integrated summary of post-treatment elimination; type: in vivo, humans
Text: The Phase II trials of obicetrapib described herein include the TA‐8995: Its Use in Patients with Mild Dyslipidaemia (TULIP)[10] study, the Randomized Study of Obicetrapib as an Adjunct to Statin Therapy (ROSE),[11] the Study to Evaluate the Effect of Obicetrapib in Combination with Ezetimibe as an Adjunct to High‐Intensity Statin Therapy (ROSE2),[12] and A Dose‐Finding Study in Japanese Patients to Evaluate the Effect of Obicetrapib as an Adjunct to Stable Statin Therapy (TA‐8995‐203).[13]

[3] = TULIP Phase II trial, plasma concentrations of obicetrapib; type: in vivo, humans; details: any of the participants
[4] = parameters: method as in PMID 24628035; details: cited from earlier work; for t ½ (terminal half‐life) / AUC (0–24 h) / C max / t max: fasting; for t ½ (terminal half‐life): arithmetic mean (CV%); for AUC (0–24 h) / C max: geometric mean (CV%); for C max: healthy White males
[5] = pH 7.4; cited from earlier work
[6] = Obicetrapib 10 mg + ezetimibe 10 mg + high‐intensity statin
[7] = Obicetrapib 10 mg + high‐intensity statin

Compound: CCOC(=O)N1c2ccc(C(F)(F)F)cc2C(N(Cc2cc(C(F)(F)F)cc(C(F)(F)F)c2)c2ncc(OCCCC(=O)O)cn2)CC1CC (centres unmarked) [Obicetrapib]
- % Change in Plasma Level [1, 6]: −92.2 (3.7) %
- % Change in Plasma Level [1, 7]: −93.7 (3.3) %
- % Change in Plasma Level ([1]; Obicetrapib 10 mg + high‐intensity statin, listed as obicetrapib): −93.7%
- concentration at 12 weeks [1, 6]: 360 ng/mL
- concentration at 16 weeks [1, 6]: 28.7 ng/mL
- concentration at 12 weeks [1, 7]: 387 ng/mL
- concentration at 16 weeks [1, 7]: 24.5 ng/mL
- decrease of plasma levels of obicetrapib ([2]; 15 weeks post‐treatment): 98.5%
- decrease of plasma levels of obicetrapib ([2]; four weeks post‐treatment): 92.2%
- obicetrapib in urine [3]: not detected
- effect of food on the AUC or C max ([4]; 50 mg dose, fed versus fasted, n = 5 White healthy males): did not have a clinically relevant effect
- effects of food, age, gender, or ethnicity on the PK parameters ([4]; PK assessment results of the other groups): no clinically relevant effects
- t ½ (terminal half‐life) ([4]; single dose 5 mg): 125 (22%) h
- AUC (0–24 h) ([4]; single dose 5 mg): 1816 (34%) ng·h/mL
- C max ([4]; single dose 5 mg): 138 (33%) ng/mL
- t max ([4]; single dose 5 mg, median (minimum, maximum)): 3 (2, 3) h
- t max ([4]; single dose 5 mg, median (minimum, maximum), listed as obicetrapib): ≤ 3 h
- t ½ (terminal half‐life) ([4]; single dose 10 mg): 124 (20%) h
- AUC (0–24 h) ([4]; single dose 10 mg): 3580 (21%) ng·h/mL
- C max ([4]; single dose 10 mg): 251 (23%) ng/mL
- t max ([4]; single dose 10 mg, median (minimum, maximum)): 3 (2, 5) h
- t max ([4]; single dose 10 mg, median (minimum, maximum), listed as obicetrapib): ≤ 3 h
- t ½ (terminal half‐life) ([4]; single dose 25 mg): 162 (19%) h
- AUC (0–24 h) ([4]; single dose 25 mg): 5952 (26%) ng·h/mL
- C max ([4]; single dose 25 mg): 467 (30%) ng/mL
- t max ([4]; single dose 25 mg, median (minimum, maximum)): 3.5 (2, 6) h
- t max ([4]; single doses 50–150 mg): 4 h
- obicetrapib in urine ([4]; single doses, any participant): not detected
- cLogDpH7.4 [5]: 4.9
